The source of these data is paper PMC8778264 (Nanomaterials, 2022).

Common to all, as to assay type: cell-based
Data set [1] relates to CRL-1739 cells. Put plainly: Fluorescence microscopy (Hoechst 33342). The procedure:
(§1) The control group comprised untreated cells and fresh culture medium without test compounds. CRL-1739 cells were seeded to a 5 × 10^4 cell density in 24-well plates. […] After the administration of formulations, cells were washed with PBS three times. The cells were trypsinized and suspended in fresh PBS with 10% fetal bovine serum.
After treatment with the formulations, CRL-1739 cells were fixed and stained with Hoechst 33342 (blue). The cellular uptake of formulations was performed with a Nikon eclipse fluorescence microscope (Nikon, Japan) at a magnification of 1000×. The stained cell nuclei were evaluated.

The test system of data set [2] is CRL-1739 cells. Put plainly: In vitro cytotoxicity (MTT assay). To be noted: 48 h treatment. On the procedure:
The cell line was cultured in DMEM supported with 10% fetal bovine serum, 0.5 mg/mL glutamine/penicillin streptomycin at 37 °C and 5% CO2. […] Ninety-six well flat-bottom plates and […] DMEM were used for the seeding procedure. […] Then, 100 μL of MTT solution (5 mg/mL) was put into each well and incubated at 37 °C. The culture medium was removed. Then, 200 μL of dimethysulfoxide was added to obtain the dissolution of the MTT formazan crystals. The absorbance was read at 570 nm using a microplate reader.
On the technique in general: Tetrazolium dyes change colour on reduction, which living cells bring about.

Data set [3] has as its system CRL-1739 cells. The experiment in a line: Cellular uptake and cell apoptosis analysis by flow cytometry (Annexin V-FITC / propidium iodide). The following applies: 0.05 and 2 mg/mL, 24 h. On the procedure:
as §1
The suspended formulations were incubated with 5 μL of Annexin V-FITC and 5 μL of propidium iodide for 15 min at room temperature in the dark. The cell suspensions were analyzed by using Guava easy Cyte in terms of cellular uptake.

Regarding `Cc1ccc(NC(=O)c2ccc(CN3CCN(C)CC3)cc2)cc1Nc1nccc(-c2cccnc2)n1` [IMT, Imatinib], the “IMT location and distribution inside cells (fluorescence)” value in data set [1] is “low fluorescence when compared to F16 and F16-IMT”. Moreover, the cell viability (as a rule, a read-out of living cells in per cent, often relative to untreated cells) in data set [2] amounted to 70.5%. For the same molecule, the “cellular uptake (fluorescence intensity, flow cytometry)” value in data set [3] is “lower fluorescence intensity than cells administered with F16 and F16-IMT”.
